Biological target: T1, CpLTL (GST-CpLTL) (Cryptosporidium parvum, UniProt Q5CWG8)
T1 construct: gene cgd6_5140; lectin-leg-like domain (nucleotides 130-852 of the ORF; domain 44-284 aa of 469), without signal peptide and TM, GST fusion kept (pGEX-4T-1), E. coli Rosetta (DE3), about 48 kDa
Assay: competition ELISA, immobilised GST-CpLTL, binding of horseradish peroxidase (mannose-rich glycoprotein), OD405
Conditions: 100 mM mannose, 50 μg/mL HRP, PBS, 4 °C overnight; competitive with HRP glycan

T1 sequence (Q5CWG8 entry or part of it): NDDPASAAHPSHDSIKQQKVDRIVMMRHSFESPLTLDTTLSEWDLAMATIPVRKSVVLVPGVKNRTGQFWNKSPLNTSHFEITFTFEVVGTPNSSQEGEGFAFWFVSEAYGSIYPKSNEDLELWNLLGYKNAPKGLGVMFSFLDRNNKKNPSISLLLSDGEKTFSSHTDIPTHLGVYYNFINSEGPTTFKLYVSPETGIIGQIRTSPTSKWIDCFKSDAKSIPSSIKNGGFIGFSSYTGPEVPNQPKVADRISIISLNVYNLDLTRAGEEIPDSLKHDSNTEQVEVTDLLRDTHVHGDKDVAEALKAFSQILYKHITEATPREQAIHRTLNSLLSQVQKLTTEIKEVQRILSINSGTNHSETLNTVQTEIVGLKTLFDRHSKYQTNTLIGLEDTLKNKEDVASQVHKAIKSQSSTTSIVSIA

Question: OC[C@H]1OC(O)[C@@H](O)[C@@H](O)[C@@H]1O (stereo partly shown) [mannose] was tested. Which “competition ELISA, immobilised GST-CpLTL, binding of horseradish peroxidase (man)” value did it give?
Answer: The value was “Mannose showed competitive inhibition on the binding of HRP to GST-CpLTL protein”.

— article PMC11363900, “A single-pass type I membrane protein, mannose-specific L-type lectin, potentially involved in the adhesion and invasion of Cryptosporidium parvum” (Parasite, 2024)
